Results published in patent US12357622B2, “Pharmaceutical composition of S1PR modulators” (UNIVERSITA DEGLI STUDI DI FIRENZE, priority 2019, dated 2025).

Experiments:
Atrogin-1/MAFbx [1] = test: Western Blotting analysis of Atrogin-1/MAFbx protein levels in C2C12 myotubes (atrophy induced by dexamethasone or TNFα); type: cell-based, murine; conditions: for effect on Dexa-induced expression of Atrogin-1/MAFbx (protein) / expression of Atrogin-1/MAFbx (protein): C2C12 myotubes; for effect on Dexa-induced expression of Atrogin-1/MAFbx (protein): modulator(s) added 1 hour before Dexa 100 μM for 48 hours, 2 μM CYM5520, 1 μM VPC23019, 2 μM W146, 2 μM FTY720; for expression of Atrogin-1/MAFbx (protein): modulator(s) in absence of Dexa, 2 μM CYM5520, 1 μM VPC23019, 2 μM W146
Procedure: (§1) C2C12 murine skeletal myoblasts obtained from the American Type Culture Collection (ATCC, Manassas, VA, USA) were cultured in Dulbecco's Modified Eagle's Medium (DMEM) (Sigma, Milan, Italy) with L-glutamine 1%, penicillin/streptomycin 1% (Sigma, Milan, Italy) and Foetal Bovine Serum 10% (FBS) (Sigma, Milan, Italy). For experiments with the myotubes, myoblasts were seeded in 6-wells plates at a concentration of 0.2×10^6 cells/ml. When the cells reached 90-100% confluence (72 hours after seeding), the medium was replaced with the differentiation medium (DM), consisting of DMEM containing antibiotics, glutamine and horse serum (HS) 2% (Sigma, Milan, Italy). The medium was changed every 24-48 hours. The complete cell differentiation was observed after 4-6 days of incubation with HS 2%. The C2C12 skeletal myotubes were incubated for 24-48 hours with the indicated compounds: Sphingosine 1-phosphate (S1P) 2 μM, or different concentration of CYM5520, VPC23019 and/or W146 (in the concentration range between 0.25 and 2 μM). CYM5478, TY52156 and siRNA specific for S1PR3 (NCBI ref NM_010101.4, sequence 5′-[…]-3 ′1118-1139 SEQ ID NO: 1, same size random oligonucleotides were used as negative control SCR-siRNA) were used in some of the experiments. The agonists/antagonists or S1PR3-siRNA or SCR-siRNA were added to the culture medium for 1 hour prior to treatment of the myotubes with dexamethasone (Dexa) 100 μM for 48 hours.
The Western Blotting analysis was carried out for determining the protein levels of Atrogin-1/MAFbx in C2C12 myotubes. The cells were lysed at 4° C. with RIPA buffer containing TrisHCl 50 mM, pH 7.5, NaCl 120 mM, EDTA 1 mM, EGTA 6 mM, Na4P2O7 15 mM, NaF 20 mM, 1% of cocktail Nonidet and protease inhibitor (1.04 mM AEBSF, 0.08 mM of aprotinin, leupeptin 0.02 mM, bestatin 0.04 mM, pepstatin A […], E-64 […] (Sigma, St. Louis, MO, USA). The lysates were centrifuged at 600× g for 6 min at 4° C., and the proteins concentration was measured by using the Bradford assay (Bio-Rad, Hercules, CA). Aliquots containing 40 μg of proteins were diluted in loading buffer 2× (10% SDS, 50% glycerol, 0.25% bromophenol blue and 0.25 M Tris-HCl, pH 6.8) and boiled at 90° C. for 10 minutes to denature proteins. The samples were subjected to SDS-polyacrylamide 10-12% (SDS-PAGE) gel electrophoresis and to Western blotting on Amersham Hybond p 0.45 PVDF membrane (GE Healthcare, Buckinghamshire, UK). […] After blocking, the membranes were washed in PBST and then incubated overnight with a 1:1000 dilution of the primary antibody comprising rabbit polyclonal antibody with Atrogin-1/MAFbx. After sufficient washings with PBST, the membranes were incubated for 1 hour at room temperature with secondary antibodies conjugated with goat anti-rabbit or goat anti-mouse horseradish peroxidase (Santa Cruz, Texas, USA) at dilution 1:10.000/1:5.000. Following three washings with PBST, the bands corresponding to the immunoreactive proteins were seen by using reagents for the detection of the Western blotting ECL (GE Healthcare, Buckinghamshire, UK); and finally, the membranes were exposed to a high performance chemiluminescence film (GE Healthcare, Buckinghamshire, UK). The identity of the bands on the Western Blot membranes was confirmed by comparing them with a high-precision marker having a known molecular weight (BioRad, Hercules, CA). Densitometric analysis of the bands was performed by using NIH IMAGE J (ImageJ software, Bethesda, MD, USA) and Quantity-One (imaging and analysis software from Bio-Rad Laboratories, Hercules, CA) and the intensity of the band was indicated as a relative percentage (mean and standard deviation from the mean), obtained by calculating the ratio of the specific protein with respect to the β-actin intensity and normalizing it to the control, set to 1.
To test the role of exogenous S1Ps, the terminally differentiated myotubes were treated with the bioactive lipid.

C2C12 myotubes [2] = test: Phase contrast microscopy of cellular morphology of C2C12 myotubes (diameter, number of myonuclei); type: cell-based, murine; conditions: for effect on atrophic morphology (myotube diameter, number of myonuclei): modulator(s) before Dexa 100 μM for 48 hours
Procedure: as §1
The images shown are representative of n. 5-6 observation frames for each treatment.
The C2C12 myoblasts were let to grow on a coverslip and when confluent they were moved on a differentiated medium for 4 days.
The C2C12 myotubes were grown on a coverslip and, when confluent, were moved onto a medium for the differentiation for 4 days. The cells were treated with the above reported combination of the three S1PR modulators before being incubated with Dexa for 48 hours. Then, the cells were fixed and observed with microscope.

C2C12 myotubes [3] = conditions: cited from earlier work
Atrogin-1/MAFbx [4] = conditions: C2C12 myotubes, cited from earlier work
S1PR3 receptor = test: Silencing of the expression of the S1PR3 receptor by siRNA in C2C12 myotubes; type: cell-based; conditions: incubation with siRNA specific for mouse S1PR3
Procedure: C2C12 murine skeletal myoblasts obtained from the American Type Culture Collection (ATCC, Manassas, VA, USA) were cultured in Dulbecco's Modified Eagle's Medium (DMEM) (Sigma, Milan, Italy) with L-glutamine 1%, penicillin/streptomycin 1% (Sigma, Milan, Italy) and Foetal Bovine Serum 10% (FBS) (Sigma, Milan, Italy). For experiments with the myotubes, myoblasts were seeded in 6-wells plates at a concentration of 0.2×10^6 cells/ml. When the cells reached 90-100% confluence (72 hours after seeding), the medium was replaced with the differentiation medium (DM), consisting of DMEM containing antibiotics, glutamine and horse serum (HS) 2% (Sigma, Milan, Italy). The medium was changed every 24-48 hours. The complete cell differentiation was observed after 4-6 days of incubation with HS 2%. The C2C12 skeletal myotubes were incubated for 24-48 hours with the indicated compounds: Sphingosine 1-phosphate (S1P) 2 μM, or different concentration of CYM5520, VPC23019 and/or W146 (in the concentration range between 0.25 and 2 μM). CYM5478, TY52156 and siRNA specific for S1PR3 (NCBI ref NM_010101.4, sequence 5′-CGGGGUCCUCUGCAAGUGA-3 ′1118-1139 SEQ ID NO: 1, same size random oligonucleotides were used as negative control SCR-siRNA) were used in some of the experiments. […]

[5] = composition of the invention with CYM5520 replaced by the named compound (2 μM), in the presence of Dexa

| Compound | effect on Dexa-induced expression of Atrogin-1/MAFbx (protein) (Atrogin-1/MAFbx [1]) | expression of Atrogin-1/MAFbx (protein) (Atrogin-1/MAFbx [1]) | effect on atrophic morphology (myotube diameter, number of myonuclei) (C2C12 myotubes [2]; C2C12 myotubes) | further results |
| --- | --- | --- | --- | --- |
| Cc1cc(C(=O)Cn2cc(C(F)(F)F)ccc2=O)c(C)n1Cc1ccccc1 [CYM5478] |  |  |  | effect on expression of Atrogin-1/MAFbx (Atrogin-1/MAFbx [1]; [5]): effect comparable with that obtained with the combination of the invention; effect on cellular morphology (C2C12 myotubes [2]; [5]): effect comparable with that obtained with the combination of the invention |
| Cc1cc(C(=O)Cn2cc(C#N)ccc2=O)c(C)n1Cc1ccccc1 [CYM5520] | only slightly counteracted the GC effect | no increase was observed | not significantly reduced |  |
| CCCCCCCCCCCCC/C=C/[C@@H](O)[C@@H](N)COP(=O)(O)O [Combination S1P, Sphingosine 1-phosphate] |  |  |  | cell morphology and number of nuclei (C2C12 myotubes [3]; Dexa-treated cells in the presence of S1P, state of the art): no significant changes; morphological parameters of the myotubes (diameter and number of myonuclei) (C2C12 myotubes [3]; S1P without Dexa, FIG. 1B, 1C state of the art): slightly change; Atrogin-1/MAFbx level (Atrogin-1/MAFbx [4]; S1P (1 μM) before Dexa 100 μM for 48 hours, FIG. 1 state of the art): reduce the Atrogin-1/MAFbx level, restoring the basal levels; expression of Atrogin-1/MAFbx (Atrogin-1/MAFbx [4]; S1P (1 μM) without Dexa, FIG. 1A state of the art): significantly increase |
| CCCCCCc1cccc(NC(=O)[C@H](N)CCP(=O)(O)O)c1 [Combination W146] | did not counteract the effect of Dexa | did not induce | not significantly reduced |  |
| CCCCCCCCc1ccc(CCC(N)(CO)CO)cc1 [FTY720] | not affected |  |  | formation of autophagic vesicles (morphological analysis) (C2C12 myotubes [2]; C2C12 myotubes, FIG. 3C): promote the formation of small autophagic vesicles |
| CCCCCCCCc1cccc(NC(=O)C(N)COP(=O)(O)O)c1 (stereo not shown) [VPC23019, [2-amino-2-(3-octyl-phenylcarbamoyl)-ethyl] ester of phosphoric acid] | did not counteract the effect of Dexa | did not induce | not significantly reduced |  |
| S1PR3-siRNA: double-stranded RNA of 21 nucleotides, SEQ ID NO:1, silencing the expression of the S1PR3 receptor (CGGGGUCCUCUGCAAGUGA; combined with other compounds, further chemistry not given here) [Combination S1PR3-siRNA] |  |  |  | reduction of expression of the S1PR3 protein (S1PR3 receptor): 40%; reduction of expression of the S1PR3 protein (S1PR3 receptor; listed as SEQ ID NO:1): about 40% |
